For data set [1], the system named is bevacizumab. The conditions noted are these: in words, Kd not given; ref [2]; cited from earlier work. The source says:
Bevacizumab is a monoclonal antibody, produced in CHO cells, used for the treatment of many human cancers. It is an anti-vascular endothelial growth factor (antsi-VEGF) that blocks the growth of tumor blood vessels. Nowadays its purification is achieved by affinity chromatography (AC) using protein A which is a very expensive ligand. […] This short peptide ligand has higher stability and lower cost than protein A and it can be prepared very easily by solid phase peptide synthesis. The ...

Data set [2] relates to bevacizumab. As to the kind of experiment: Bevacizumab purification by Ac-PHQGQHIGVSK-agarose affinity chromatography from the CHO cell culture. The conditions noted are these: in words; mild elution conditions. The method, then:
Material • Adsorption buffer: 20 mM sodium phosphate, pH 7.0, 1 M (NH4)2SO4 • A column containing 0.5 mL (0.5 × 2.5 cm) of Ac-PHQGQHIGVSK-agarose • Elution buffer: 20 mM sodium phosphate, pH 7.0 • Absorption UV/VIS spectrophotometer
Procedure • 1 Clarify the CHO cell culture containing bevacizumab by centrifugation or filtration. • 2 Add to the sample the amount of (NH4)2SO4 necessary to achieve a final concentration of 1 M. • 3 Equilibrate the chromatographic column containing Ac-PHQGQHIGVSK-agarose with 20 volumes of adsorption buffer. • 4 Load the column with CHO cell culture filtrate containing bevacizumab. Note: the amount of bevacizumab loaded to the column must be lower than the maximum capacity of the chromatographic matrix synthesized. • 5 Wash the column with adsorption buffer until the absorbance at 280 nm achieves the baseline value. • 6 Elute the bound protein by adding 20 mM sodium phosphate, pH 7.0. • 7 Measure total protein concentration with Bradford reagent using pure bevacizumab as the protein standard. • 8 Measure bevacizumab concentration by HPLC using a protein A analytical column as per Zou et al.. • 9 Perform sodium dodecyl sulfate polyacrylamide gel electrophoresis (SDS-PAGE) (12.5 % under reductive conditions) as described by Laemmli and stain gels with Coomassie Blue following the standard procedure.

In the case of Ac-PHQGQHIGVSK-NH2, the affinity for bevacizumab entry in data set [1] was “binds bevacizumab with high affinity”. On to “bevacizumab: anti-vascular endothelial growth factor (anti-VEGF) monoclonal antibody, produced in CHO cells”, for which the “integrity of bevacizumab (mAb)” value in data set [2] was “preserve the integrity”.

(Values after PMC6993007, “Protocol for bevacizumab purification using Ac-PHQGQHIGVSK-agarose” (MethodsX, 2019).)
